Where a SMILES comes first, the peptide text is derived from it.
biological target: T1, EcPBP3 (Escherichia coli, UniProt P0AD68); experiment: SPR binding assay on immobilised EcPBP3; settings: 37 °C, kinetic fitting; NB = no binding at 2500 nM (Tables S-4, S-5) or 5000 nM (Table 1); read-out: Kd (nM) by SPR (geomean)
T1 construct: For assays, selections and SPR a construct with residues 60–588 which has the N-terminal domain, but not the transmembrane helix, was used; made in house
Protocol: Surface plasmon resonance (SPR) assays were performed using EcPBP3 immobilized on CM5 sensor chips (GE Healthcare) via amine-coupling chemistry in assay buffer (10 mM HEPES pH 8.0, 200 mM NaCl, 0.05% (v/v) surfactant P20). The chip surface was activated by injection (10 μL min^–1) of 0.4 M EDC and 0.1 M NHS (in a 1:1 ratio) with a 7 min contact time. Protein was diluted to 25 μg mL^–1 in 10 mM MOPS (pH 7.0) and injected over the activated sensor chip surface to reach immobilization of 1500-2500 response units. Excess hydroxysuccinimidyl groups on the chip surface were deactivated by injection (10 μL min^–1) of 1 M ethanolamine hydrochloride pH 8.0 with a 7 min contact time. Reference flow cells were prepared as described, but without ligand (EcPBP3 protein).
Binding analysis runs were performed at 37 °C in running buffer (10 mM HEPES pH 8.0, 200 mM NaCl, 0.05% (w/v) Tween-20, 2% (v/v) DMSO). Test compounds (and control runs of buffer only) were injected in running buffer over the EcPBP3 chip and reference flow cell, at flow rate of 50 μL min^–1 for 150 s contact time and 2400 s dissociation time. Each injection was followed by a wash with 50% (v/v) DMSO. All compounds were tested in at least two independent biological replicates unless otherwise stated.
Raw sensorgrams data were solvent-corrected, reference-subtracted and blank-buffer-subtracted (double-referencing) before kinetic and affinity analysis to account for non-specific binding and injection artifacts. Equilibrium dissociation constant (Kd) values was determined using the Biacore™ Insight Evaluation Software (version 4.0.8 or version 5.0.17) using kinetic fitting. Kd values presented are the geometric mean of at least two biological replicates.

T1 sequence (P0AD68 60-588): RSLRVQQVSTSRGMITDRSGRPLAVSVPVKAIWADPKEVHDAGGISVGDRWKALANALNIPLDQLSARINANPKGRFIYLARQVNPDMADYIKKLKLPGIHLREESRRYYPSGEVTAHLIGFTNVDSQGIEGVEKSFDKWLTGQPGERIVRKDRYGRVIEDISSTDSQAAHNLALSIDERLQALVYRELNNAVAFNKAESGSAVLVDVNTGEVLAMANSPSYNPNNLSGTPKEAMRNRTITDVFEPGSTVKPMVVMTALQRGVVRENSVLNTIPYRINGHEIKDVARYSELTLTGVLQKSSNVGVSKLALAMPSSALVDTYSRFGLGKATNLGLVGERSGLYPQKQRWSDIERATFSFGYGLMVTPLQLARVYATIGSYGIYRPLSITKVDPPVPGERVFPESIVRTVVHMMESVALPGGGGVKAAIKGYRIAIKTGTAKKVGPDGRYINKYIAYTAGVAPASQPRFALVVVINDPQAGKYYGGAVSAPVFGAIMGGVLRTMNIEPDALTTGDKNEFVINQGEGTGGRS

Compound	Kd
CC(C)[C@@H]1NC(=O)[C@H](Cc2c[nH]c3ccccc23)NC(=O)[C@@H]2CCCN2C(=O)[C@@H]2CSCCC(=O)N3CN(CN(C3)C(=O)CCSC[C@@H](C(=O)N[C@@H](C)C(N)=O)NC(=O)[C@H](C)NC(=O)[C@H](CCC(=O)O)NC1=O)C(=O)CCSC[C@H](NC(=O)[C@H](C)N)C(=O)N[C@@H](CO)C(=O)N[C@@H](Cc1ccccc1)C(=O)N1CCC[C@H]1C(=O)N[C@@H](CCCCN)C(=O)N2 [Peptide 24]	24.4 nM

biological target: T1, EcPBP3; experiment: Fluorescence polarisation competition assay with fluorescent Bicycle tracer (tracer 1 / BCY12820); format: binding; settings: protein 9.4 nM sets sensitivity limit, top concentration 5 µM, read-out: Ki (nM) by fluorescence polarisation with tracer 1 (BCY12820 as tracer), Geometric mean (Lower 95% CI; Upper 95% CI, n=number of values)
Protocol: Competition fluorescence polarisation assays were run by observing the fluorescence polarisation of a fluorescent “tracer” Bicycle molecule which competes against an unlabelled peptide for binding to the EcPBP3 target. 10 µL of protein (9.4 nM) was mixed with either 5 µL of peptide or 5 µL of buffer and then the assay was initiated by the addition of 10 µL of tracer (1 nM) (final volume 25 µL), in a black 384 low bind, low volume plate (Corning). The buffer was 10 mM HEPES (Sigma), 2% (v/v) glycerol (Sigma), 300 mM NaCl (Sigma), adjusted to pH 8. The plate was incubated for 1 h at 25 °C and then read in a PHERAstar FS (BMG) using with an “FP 485 520 520” optic module (excitation 485 nm, emission 520 nm). The gain was determined immediately prior to the read on a tracer-only well.
Dotmatics (Dotmatics) workflows performing the above calculations were used to process the data. Values quoted are the geometric means of at least 2 repeats.

Compound	Ki
CC(C)[C@@H]1NC(=O)[C@H](Cc2c[nH]c3ccccc23)NC(=O)[C@@H]2CCCN2C(=O)[C@@H]2CSCCC(=O)N3CN(CN(C3)C(=O)CCSC[C@@H](C(=O)N[C@@H](C)C(N)=O)NC(=O)[C@H](C)NC(=O)[C@H](CCC(=O)O)NC1=O)C(=O)CCSC[C@H](NC(=O)[C@H](C)N)C(=O)N[C@@H](CO)C(=O)N[C@@H](Cc1ccccc1)C(=O)N1CCC[C@H]1C(=O)N[C@@H](CCCCN)C(=O)N2 [Peptide 24]	25.5 nM
C[C@H](N)C(=O)N[C@H]1CSCCC(=O)N2CN3CN(C2)C(=O)CCSC[C@H](NC(=O)[C@H](CCCCNC(=N)N)NC(=O)[C@@H]2CCCN2C(=O)[C@H](Cc2ccccc2)NC(=O)[C@H](CO)NC1=O)C(=O)N1CCC[C@H]1C(=O)N[C@@H](Cc1c[nH]c2ccccc12)C(=O)N[C@@H]([C@@H](C)O)C(=O)N[C@@H](CCC(=O)O)C(=O)NCC(=O)N[C@H](C(=O)N[C@@H](C)C(N)=O)CSCCC3=O [Peptide 46] (HELM PEPTIDE1{A.C.S.F.P.[N=C(N)NCCCC[C@H](N[*:1])C(=O)[*:2]].C.P.W.T.E.G.C.A.[am]}|CHEM1{[O=C(CC[*:1])N1CN(C(=O)CC[*:2])CN(C(=O)CC[*:3])C1]}$PEPTIDE1,CHEM1,2:R3-1:R1|PEPTIDE1,CHEM1,7:R3-1:R2|PEPTIDE1,CHEM1,13:R3-1:R3$$$V2.0)	15.5 nM
CC(C)[C@@H]1NC(=O)[C@H](Cc2c[nH]c3ccccc23)NC(=O)[C@@H]2CCCN2C(=O)[C@@H]2CSCCC(=O)N3CN(CN(C3)C(=O)CCSC[C@H](NC(=O)[C@H](C)N)C(=O)N[C@@H](CO)C(=O)N[C@@H](Cc3ccccc3)C(=O)N[C@@H](Cc3ccc(O)cc3)C(=O)N[C@@H](CCCCNC(=N)N)C(=O)N2)C(=O)CCSC[C@@H](C(=O)N[C@@H](C)C(N)=O)NC(=O)CNC(=O)[C@H](CCC(=O)O)NC1=O [Peptide 34] (HELM PEPTIDE1{A.C.S.F.Y.[N=C(N)NCCCC[C@H](N[*:1])C(=O)[*:2]].C.P.W.V.E.G.C.A.[am]}|CHEM1{[O=C(CC[*:1])N1CN(C(=O)CC[*:2])CN(C(=O)CC[*:3])C1]}$PEPTIDE1,CHEM1,2:R3-1:R1|PEPTIDE1,CHEM1,7:R3-1:R2|PEPTIDE1,CHEM1,13:R3-1:R3$$$V2.0)	27.1 nM
CC(C)[C@@H]1NC(=O)[C@H](Cc2c[nH]c3ccccc23)NC(=O)[C@@H]2CCCN2C(=O)[C@@H]2CSCCC(=O)N3CN(CN(C3)C(=O)CCSC[C@H](NC(=O)[C@H](C)N)C(=O)NCC(=O)N[C@@H](Cc3ccccc3)C(=O)N3CCC[C@H]3C(=O)N[C@@H](CCCCNC(=N)N)C(=O)N2)C(=O)CCSC[C@@H](C(=O)N[C@@H](C)C(N)=O)NC(=O)CNC(=O)[C@H](CCC(=O)O)NC1=O [Peptide 26] (HELM PEPTIDE1{A.C.G.F.P.[N=C(N)NCCCC[C@H](N[*:1])C(=O)[*:2]].C.P.W.V.E.G.C.A.[am]}|CHEM1{[O=C(CC[*:1])N1CN(C(=O)CC[*:2])CN(C(=O)CC[*:3])C1]}$PEPTIDE1,CHEM1,2:R3-1:R1|PEPTIDE1,CHEM1,7:R3-1:R2|PEPTIDE1,CHEM1,13:R3-1:R3$$$V2.0)	17.1 nM
CC(C)[C@@H]1NC(=O)[C@H](Cc2c[nH]c3ccccc23)NC(=O)[C@@H]2CCCN2C(=O)[C@@H]2CSCCC(=O)N3CN(CN(C3)C(=O)CCSC[C@H](NC(=O)[C@H](C)N)C(=O)N[C@@H](CCC(=O)O)C(=O)N[C@@H](Cc3ccccc3)C(=O)N3CCC[C@H]3C(=O)N[C@@H](CCCCNC(=N)N)C(=O)N2)C(=O)CCSC[C@@H](C(=O)N[C@@H](C)C(N)=O)NC(=O)CNC(=O)[C@H](CCC(=O)O)NC1=O [Peptide 31] (HELM PEPTIDE1{A.C.E.F.P.[N=C(N)NCCCC[C@H](N[*:1])C(=O)[*:2]].C.P.W.V.E.G.C.A.[am]}|CHEM1{[O=C(CC[*:1])N1CN(C(=O)CC[*:2])CN(C(=O)CC[*:3])C1]}$PEPTIDE1,CHEM1,2:R3-1:R1|PEPTIDE1,CHEM1,7:R3-1:R2|PEPTIDE1,CHEM1,13:R3-1:R3$$$V2.0)	< 9 nM
CC(C)[C@@H]1NC(=O)[C@H](Cc2c[nH]c3ccccc23)NC(=O)[C@@H]2CCCN2C(=O)[C@@H]2CSCCC(=O)N3CN(CN(C3)C(=O)CCSC[C@H](NC(=O)[C@H](C)N)C(=O)N[C@@H](CO)C(=O)N[C@@H](Cc3ccccc3)C(=O)N[C@@H](CC(=O)O)C(=O)N[C@@H](CCCCNC(=N)N)C(=O)N2)C(=O)CCSC[C@@H](C(=O)N[C@@H](C)C(N)=O)NC(=O)CNC(=O)[C@H](CCC(=O)O)NC1=O [Peptide 38] (HELM PEPTIDE1{A.C.S.F.D.[N=C(N)NCCCC[C@H](N[*:1])C(=O)[*:2]].C.P.W.V.E.G.C.A.[am]}|CHEM1{[O=C(CC[*:1])N1CN(C(=O)CC[*:2])CN(C(=O)CC[*:3])C1]}$PEPTIDE1,CHEM1,2:R3-1:R1|PEPTIDE1,CHEM1,7:R3-1:R2|PEPTIDE1,CHEM1,13:R3-1:R3$$$V2.0)	167 nM
CC(C)[C@@H]1NC(=O)[C@H](Cc2ccc(O)cc2)NC(=O)[C@@H]2CCCN2C(=O)[C@@H]2CSCCC(=O)N3CN(CN(C3)C(=O)CCSC[C@H](NC(=O)[C@H](C)N)C(=O)N[C@@H](CO)C(=O)N[C@@H](Cc3ccccc3)C(=O)N3CCC[C@H]3C(=O)N[C@@H](CCCCNC(=N)N)C(=O)N2)C(=O)CCSC[C@@H](C(=O)N[C@@H](C)C(N)=O)NC(=O)CNC(=O)[C@H](CCC(=O)O)NC1=O [Peptide 42] (HELM PEPTIDE1{A.C.S.F.P.[N=C(N)NCCCC[C@H](N[*:1])C(=O)[*:2]].C.P.Y.V.E.G.C.A.[am]}|CHEM1{[O=C(CC[*:1])N1CN(C(=O)CC[*:2])CN(C(=O)CC[*:3])C1]}$PEPTIDE1,CHEM1,2:R3-1:R1|PEPTIDE1,CHEM1,7:R3-1:R2|PEPTIDE1,CHEM1,13:R3-1:R3$$$V2.0)	209 nM
CC(C)[C@@H]1NC(=O)[C@H](Cc2c[nH]c3ccccc23)NC(=O)[C@@H]2CCCN2C(=O)[C@@H]2CSCCC(=O)N3CN(CN(C3)C(=O)CCSC[C@@H](C(=O)N[C@@H](C)C(N)=O)NC(=O)[C@H](Cc3c[nH]cn3)NC(=O)[C@H](CCC(=O)O)NC1=O)C(=O)CCSC[C@H](NC(=O)[C@H](C)N)C(=O)N[C@@H](CO)C(=O)N[C@@H](Cc1ccccc1)C(=O)N1CCC[C@H]1C(=O)N[C@@H](CCCCNC(=N)N)C(=O)N2 [Peptide 53] (HELM PEPTIDE1{A.C.S.F.P.[N=C(N)NCCCC[C@H](N[*:1])C(=O)[*:2]].C.P.W.V.E.H.C.A.[am]}|CHEM1{[O=C(CC[*:1])N1CN(C(=O)CC[*:2])CN(C(=O)CC[*:3])C1]}$PEPTIDE1,CHEM1,2:R3-1:R1|PEPTIDE1,CHEM1,7:R3-1:R2|PEPTIDE1,CHEM1,13:R3-1:R3$$$V2.0)	< 9 nM
CC(C)C[C@@H]1NC(=O)[C@H](C(C)C)NC(=O)[C@H](Cc2c[nH]c3ccccc23)NC(=O)[C@@H]2CCCN2C(=O)[C@@H]2CSCCC(=O)N3CN(CN(C3)C(=O)CCSC[C@H](NC(=O)[C@H](C)N)C(=O)N[C@@H](CO)C(=O)N[C@@H](Cc3ccccc3)C(=O)N3CCC[C@H]3C(=O)N[C@@H](CCCCNC(=N)N)C(=O)N2)C(=O)CCSC[C@@H](C(=O)N[C@@H](C)C(N)=O)NC(=O)CNC1=O [Peptide 48] (HELM PEPTIDE1{A.C.S.F.P.[N=C(N)NCCCC[C@H](N[*:1])C(=O)[*:2]].C.P.W.V.L.G.C.A.[am]}|CHEM1{[O=C(CC[*:1])N1CN(C(=O)CC[*:2])CN(C(=O)CC[*:3])C1]}$PEPTIDE1,CHEM1,2:R3-1:R1|PEPTIDE1,CHEM1,7:R3-1:R2|PEPTIDE1,CHEM1,13:R3-1:R3$$$V2.0)	49.7 nM
CC(C)[C@@H]1NC(=O)[C@H](Cc2c[nH]c3ccccc23)NC(=O)[C@@H]2CCCN2C(=O)[C@@H]2CSCCC(=O)N3CN(CN(C3)C(=O)CCSC[C@H](NC(=O)[C@H](C)N)C(=O)N[C@@H](CO)C(=O)N[C@@H](Cc3ccccc3)C(=O)N[C@@H](CO)C(=O)N[C@@H](CCCCNC(=N)N)C(=O)N2)C(=O)CCSC[C@@H](C(=O)N[C@@H](C)C(N)=O)NC(=O)CNC(=O)[C@H](CCC(=O)O)NC1=O [Peptide 35] (HELM PEPTIDE1{A.C.S.F.S.[N=C(N)NCCCC[C@H](N[*:1])C(=O)[*:2]].C.P.W.V.E.G.C.A.[am]}|CHEM1{[O=C(CC[*:1])N1CN(C(=O)CC[*:2])CN(C(=O)CC[*:3])C1]}$PEPTIDE1,CHEM1,2:R3-1:R1|PEPTIDE1,CHEM1,7:R3-1:R2|PEPTIDE1,CHEM1,13:R3-1:R3$$$V2.0)	53.4 nM
